This assay addresses T1, ERG channel (rapid delayed rectifier potassium channel, IKr) (Ovis aries, UniProt A0ACI6Q0V2).
T1 construct: gene KCNH2; native IKr in isolated left ventricular myocytes
T1 sequence (A0ACI6Q0V2 1-1163): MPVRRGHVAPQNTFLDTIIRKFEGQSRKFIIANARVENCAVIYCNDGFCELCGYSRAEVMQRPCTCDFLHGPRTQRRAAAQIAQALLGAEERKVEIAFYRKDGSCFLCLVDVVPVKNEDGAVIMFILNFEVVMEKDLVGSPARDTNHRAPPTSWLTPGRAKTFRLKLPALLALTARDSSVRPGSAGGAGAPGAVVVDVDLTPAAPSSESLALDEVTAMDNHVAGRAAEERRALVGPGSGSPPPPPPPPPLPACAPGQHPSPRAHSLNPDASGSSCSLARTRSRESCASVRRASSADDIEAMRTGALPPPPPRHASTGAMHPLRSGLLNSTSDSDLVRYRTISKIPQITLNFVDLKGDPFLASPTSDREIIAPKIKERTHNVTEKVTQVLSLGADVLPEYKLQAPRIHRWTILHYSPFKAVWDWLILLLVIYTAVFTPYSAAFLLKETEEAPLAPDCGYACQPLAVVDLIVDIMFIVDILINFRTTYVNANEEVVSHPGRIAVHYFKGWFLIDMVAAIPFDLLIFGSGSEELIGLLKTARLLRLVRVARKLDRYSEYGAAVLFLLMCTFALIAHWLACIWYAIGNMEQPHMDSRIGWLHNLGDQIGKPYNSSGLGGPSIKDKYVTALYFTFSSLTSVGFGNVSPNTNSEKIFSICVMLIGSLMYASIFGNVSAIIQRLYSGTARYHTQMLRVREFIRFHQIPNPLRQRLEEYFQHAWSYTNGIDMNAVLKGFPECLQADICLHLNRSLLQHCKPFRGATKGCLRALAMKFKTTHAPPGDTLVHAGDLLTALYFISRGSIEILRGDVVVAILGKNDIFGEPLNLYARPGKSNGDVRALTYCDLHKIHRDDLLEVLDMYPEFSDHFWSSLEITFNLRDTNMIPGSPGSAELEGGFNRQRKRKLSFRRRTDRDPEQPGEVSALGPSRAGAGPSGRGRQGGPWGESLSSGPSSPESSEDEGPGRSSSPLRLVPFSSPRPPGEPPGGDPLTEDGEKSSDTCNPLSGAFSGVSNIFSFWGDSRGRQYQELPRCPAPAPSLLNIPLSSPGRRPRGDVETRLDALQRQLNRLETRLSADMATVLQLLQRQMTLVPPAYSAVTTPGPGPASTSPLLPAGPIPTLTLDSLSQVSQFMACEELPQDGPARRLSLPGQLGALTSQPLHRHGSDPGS
Description: whole-cell patch-clamp of native IKr tail current. The format is cell-based. Background: Patch clamp records ionic current or voltage across a cell membrane.

The compound `c1ccc2c(c1)ccc1ccccc12` [Phe, phenanthrene] registered an inhibition at 25 µM of 55.8%.

As a reminder, the inhibition is the drop in the measured response relative to a control, in per cent. A lower inhibition goes with a response near the control.

The values above are taken from PMC12380724, “The air pollutant phenanthrene disrupts calcium cycling and alters repolarization in female sheep ventricular cardiomyocytes” (Physiological Reports, 2025).
